According to ChEMBL document CHEMBL2150877, “γ-Secretase modulators as potential disease modifying anti-Alzheimer's drugs” (J Med Chem, 2011):

Experiments:
[1] = Inhibition of gamma secretase assessed as reduction in Abeta42 or Abeta40 production
[2] = Inhibition of gamma secretase assessed as reduction in Abeta42 production

| SMILES | IC50 [1] [nM] | IC50 [2] [nM] |
| --- | --- | --- |
| CCN(CC)c1ccc(Nc2nc(-c3ccc(-c4cnc(C)[nH]4)cc3)cs2)c(C)c1 | 5100 | – |
| CCN(CC)c1ccc(Nc2nc(-c3ccc(-n4cnc(C)c4)cc3C(F)(F)F)cs2)c(C)c1 | 5100 | – |
| COc1cc(/C=C/c2nnc(C(C)c3ccc(F)cc3)[nH]2)ccc1-n1cnc(C)c1 (stereo unspecified) | – | 33 |
| COc1cc(Nc2nc(OC(C)C)nc(N(C)c3ccc(Cl)cc3)n2)ccc1-n1cnc(C)c1 | – | 120 |
| COc1nc(-c2nc3n(n2)CCC[C@@H]3c2cc(N(CC3CC3)CC(F)(F)F)ccc2Cl)ccc1-n1cnc(C)c1 | – | 6 |
| COc1cc(/C=C/c2nc(-c3ccccc3)c[nH]2)ccc1-n1cnc(C)c1 | – | 76 |
| COc1cc(C2=NOC3(CCCN(C(C)c4ccc(F)cc4)C3=O)C2)ccc1-n1cnc(C)c1 (stereo unspecified) | – | > 200 |
| CC(C)CC[C@H](c1ccc(C(F)(F)F)cc1)N1CC[C@@H](CC(=O)O)C(F)(F)[C@H]1c1ccc(C(F)(F)F)cc1 | – | 710 |
| CSc1ccc(/C=C2/C(C)=C(CC(=O)O)c3cc(F)ccc32)cc1 [SULINDAC SULFIDE] | – | 34000 |
| COc1cc(Nc2nc3c(c(Cc4ccccc4)n2)CN(CCO)CC3)ccc1-n1cnc(C)c1 | – | 25 |
| COc1cc(/C=C/C(=O)NCc2cccc(-c3ccccc3)c2)ccc1-n1cnc(C)c1 | – | 70 |
| CC(C)CC(C(=O)O)c1cc(C#N)c(OCC2CC2)c(-c2ccc(C(F)(F)F)cc2)c1 (stereo unspecified) | – | 275 |
| CCCC1CCCCN1c1cc(-c2ccc(C(F)(F)F)cc2)cc(C(CC(C)C)C(=O)O)c1 (stereo unspecified) | – | 430 |
| CC(C)CC(C(=O)O)c1cc(-c2ccc(C(F)(F)F)cc2)cc(C2CCCC(C(F)(F)F)N2C)c1 (stereo unspecified) | – | 420 |
| COc1cc(/C=C2\OC(C)(C)CN([C@@H](C)c3ccc(F)cc3)C2=O)ccc1-n1cnc(C)c1 | – | 76 |
| CCC[C@H](C(=O)O)c1cc(OCc2ccccc2)cc(-c2ccc(C(F)(F)F)cc2)c1 | – | 2500 |
| CC(C)CC(C(=O)O)c1cc(CCc2cc(F)cc(F)c2)cc(-c2ccc(C(F)(F)F)cc2)c1 (stereo unspecified) | – | 410 |
| COc1cc(/C=C2\OC[C@@H]3CCC[C@H](c4ccc(F)cc4)N3C2=O)ccc1-n1cnc(C)c1 | – | 201 |

| SMILES | IC50 [1] [nM] | IC50 [2] [nM] |
| --- | --- | --- |
| COc1cc(Nc2ncn(Cc3cccc(Cl)c3)n2)ccc1-n1cnc(C)c1 | – | 130 |
| COc1cc(Nc2nc3n(n2)CCCC[C@H]3c2ccc(OCC(F)(F)F)cc2)ccc1-n1cnc(Cl)c1 | – | 5 |
| CC(C)CCN1C(c2cc(-c3ccc(C(F)(F)F)cc3)cc(C(CC(C)C)C(=O)O)c2)CCCC1C(F)(F)F (stereo unspecified) | – | 110 |
| N#Cc1cc(Nc2nc3n(n2)CCCC3c2ccc(F)cc2)ccc1-n1cnc(Cl)c1 (stereo unspecified) | – | 110 |
| COc1cc(Nc2nc3c(s2)CCCC3c2ccccc2)ccc1-n1cnc(C)c1 (stereo unspecified) | – | 40 |
| CC(C)CC(C(=O)O)c1cc(Cc2cc(F)cc(F)c2)cc(-c2ccc(C(F)(F)F)cc2)c1 (stereo unspecified) | – | 740 |
| COc1cc(/C=C/c2nc(-c3ccccc3)cn2C)ccc1-n1cnc(C)c1 | – | 18 |
| COc1cc(/C=C/c2nc3n(n2)CCC[C@@H]3c2cccc(F)c2)ccc1-n1cnc(C)c1 | – | 28 |
| COc1cc(/C=C2\CCCn3c(-c4ccc(F)cc4)cnc32)ccc1-n1cnc(C)c1 | – | 170 |
| CCCCCCCCCCn1c2ccc(Cl)cc2c2ccc(C(C)C(=O)O)cc21 (stereo unspecified) | – | 2900 |
| CC(C)CC(C(=O)O)c1cc(Cl)c(OCC2CC2)c(-c2ccc(C(F)(F)F)cc2)c1 (stereo unspecified) | – | 69 |
| CC(C(=O)O)c1ccc2c(c1)[nH]c1ccc(Cl)cc12 (stereo unspecified) [CARPROFEN] | – | 76000 |
| COc1cc(-c2cn(C3CCc4ccccc4N(CC(F)(F)F)C3=O)nn2)ccc1-c1ccncc1 (stereo unspecified) | – | 80 |
| CC(C)CCN(Cc1cc(-c2ccc(C(F)(F)F)cc2)cc(C(CC(C)C)C(=O)O)c1)Cc1ccc(F)c(F)c1 (stereo unspecified) | – | 65 |
| COc1cc(-c2cn([C@@H]3CCc4c(C)cc(C)cc4N(CC(F)(F)F)C3=O)nn2)ccc1-n1cnc(C)c1 | – | 21 |
| CC(C)CC(C(=O)O)c1cc(Cl)c(OCC2CC2)c(-c2ccc3nonc3c2)c1 (stereo unspecified) | – | 274 |
| COc1cc(Nc2nc(C)c(Cc3cccc(Cl)c3)s2)ccc1-n1cnc(C)c1 | – | 210 |
| CC(C)CCN(Cc1cc(-c2ccc(C(F)(F)F)cc2)cc(C(CC(C)C)C(=O)O)c1)c1ccc(C(F)(F)F)cc1 (stereo unspecified) | – | 250 |
